Test results: ChEMBL document CHEMBL3886414, “Bicarbocyclic and tricarbocyclic ethynyl derivatives and uses of same” (2015)

Target: Metabotropic glutamate receptor 5 (Homo sapiens, UniProt P41594)
Assay: Calcium Mobilization Assay: The rmGluR5 or hmGluR5 was stably expressed in a HEK 293 cell line and gown in Dulbecco's Modified Eagle Medium (DMEM) (Invitrogen, Carlsbad, Calif.) with supplements (10% bovine calf serum, 4 mM glutamine, 100 units/mL penicillin, 100 μg/mL streptomycin and 0.75 mM G1418) at 37° C., 5% CO2. Twenty-four hours prior to assay, cells were seeded into 384-well black wall microtiter plates coated with poly-D-lysine. Just prior to assay, media was aspirated and cells dye-loaded (25 μL/well) with 3 μM Fluo-4/0.01% pluronic acid in assay buffer (Hank's Balanced Saline Solution (HBSS)): 150 mM NaCl, 5 mM KCl, 1 mM CaCl2, 1 mM MgCl2, plus 20 mM N-2-Hydroxyethylpiperazine-N′-2-ethanesulfonic acid (HEPES), pH 7.4, 0.1% bovine serum albumin (BSA) and 2.5 mM probenecid) for 1 hour in 5% CO2 at 37° C. After excess dye was discarded, cells were washed in assay buffer and layered with a final volume equal to 30 μL/well. Basal fluorescence is monitored in a fluorometri
Format: functional, cell-based, HEK293

Chain of Metabotropic glutamate receptor 5 (P41594 whole entry): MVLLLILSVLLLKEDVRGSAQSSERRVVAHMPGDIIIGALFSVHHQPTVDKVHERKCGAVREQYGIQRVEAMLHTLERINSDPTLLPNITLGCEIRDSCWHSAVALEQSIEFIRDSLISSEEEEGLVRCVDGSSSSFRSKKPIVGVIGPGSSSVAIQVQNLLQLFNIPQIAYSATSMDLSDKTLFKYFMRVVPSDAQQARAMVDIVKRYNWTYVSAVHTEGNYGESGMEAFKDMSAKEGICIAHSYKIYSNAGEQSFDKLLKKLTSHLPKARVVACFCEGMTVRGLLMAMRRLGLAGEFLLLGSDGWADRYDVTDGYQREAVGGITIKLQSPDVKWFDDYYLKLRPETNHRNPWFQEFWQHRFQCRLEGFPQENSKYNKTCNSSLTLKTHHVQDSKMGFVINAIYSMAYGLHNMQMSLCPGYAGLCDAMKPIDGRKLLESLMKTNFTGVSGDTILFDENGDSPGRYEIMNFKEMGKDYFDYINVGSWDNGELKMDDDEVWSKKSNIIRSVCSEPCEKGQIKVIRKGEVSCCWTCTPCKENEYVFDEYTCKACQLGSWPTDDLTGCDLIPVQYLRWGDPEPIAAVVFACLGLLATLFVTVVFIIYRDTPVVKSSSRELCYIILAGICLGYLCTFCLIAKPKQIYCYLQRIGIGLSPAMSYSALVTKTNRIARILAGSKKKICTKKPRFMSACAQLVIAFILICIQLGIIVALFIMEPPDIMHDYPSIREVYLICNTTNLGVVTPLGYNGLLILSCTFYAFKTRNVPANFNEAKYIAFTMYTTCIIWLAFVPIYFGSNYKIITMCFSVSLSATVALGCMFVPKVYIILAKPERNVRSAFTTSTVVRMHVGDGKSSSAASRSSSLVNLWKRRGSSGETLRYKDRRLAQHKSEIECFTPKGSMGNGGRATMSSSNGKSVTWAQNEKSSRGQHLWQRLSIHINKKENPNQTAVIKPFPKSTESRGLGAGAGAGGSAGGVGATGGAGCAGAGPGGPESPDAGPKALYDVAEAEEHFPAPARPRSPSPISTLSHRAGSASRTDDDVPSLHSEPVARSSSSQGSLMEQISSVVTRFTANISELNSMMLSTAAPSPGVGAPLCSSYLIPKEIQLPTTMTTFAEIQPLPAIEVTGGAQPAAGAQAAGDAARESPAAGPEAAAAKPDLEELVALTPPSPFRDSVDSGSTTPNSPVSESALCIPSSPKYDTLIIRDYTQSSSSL

| SMILES | IC50 [nM] |
| --- | --- |
| Cc1ccc(C#CC23CC4CC(C2)CC(NC(=O)c2cnccn2)(C4)C3)cn1 | 700 |
| Cc1cncc(C(=O)NC23CC4CC(CC(C#Cc5cccnc5)(C4)C2)C3)n1 | 3.8 |
| O=C(NC12CCCC(C#Cc3cccc(F)c3)(CC1)C2)c1cnccn1 (stereo unspecified) | 1.2 |
| O=C(NC12CC3CC(CC(C#Cc4cnccn4)(C3)C1)C2)c1cncc(F)c1 | 30 |
| O=C(N[C@@]12CCC[C@@](C#Cc3ncccc3F)(CC1)C2)c1cnccn1 | 9.3 |
| Cc1cccc(C#C[C@]23CCC[C@](NC(=O)c4ccccn4)(CC2)C3)n1 | 5.3 |
